One experiment concerns P388. Put plainly: Cytotoxicity against mouse P388 cells after 48 hrs by MTT assay. Format: functional, cell-based. To be noted: P388, 48 h. Background: Tetrazolium dyes change colour on reduction, which living cells bring about.
Another experiment has as its system A549. Description: Cytotoxicity against human A549 cells. Type of experiment: functional, cell-based.

The term IC50 denotes the concentration that gives 50% inhibition. A higher IC50 goes with weaker potency. Consider `C=C/C=C\[C@H](C)[C@H](OC(N)=O)[C@@H](C)[C@H](O)[C@@H](C)C/C(C)=C\[C@H](C)[C@@H](O)[C@@H](C)/C=C\[C@@H](O)C[C@H](O)[C@H](C)[C@H](O)[C@@H](C)C(=O)OC`, for which the IC50 with P388 was 65.8 nM; in the experiment on A549, 74 nM. The corresponding values for `C=C/C=C\[C@H](C)[C@H](OC(N)=O)[C@@H](C)[C@H](O)[C@@H](C)C/C(C)=C\[C@H](C)[C@@H](O)[C@@H](C)/C=C\[C@@H](O)C[C@@H]1OC(=O)C[C@@H](O)[C@H]1C` are 172 nM and 120 nM. On to `C=C/C=C\[C@H](C)[C@H](OC(N)=O)[C@@H](C)[C@H](O)[C@@H](C)C/C(C)=C\[C@H](C)[C@@H](O)[C@@H](C)/C=C\[C@@H](O)C[C@@H]1OC(=O)[C@@H](C)[C@@H](O)[C@H]1C`, for which the IC50 with P388 is 134 nM; in the experiment on A549, 67 nM.

With `C=C/C=C\[C@H](C)[C@H](O)[C@@H](C)[C@H](O)[C@@H](C)C/C(C)=C\[C@H](C)[C@@H](O)[C@@H](C)/C=C\[C@@H](O)C[C@@H]1OC(=O)[C@H](C)[C@@H](O)[C@H]1C`, the IC50 with P388 was determined as 128 nM; with A549 it was 74 nM.

For the molecule `C=C/C=C\C(C)C(OC(N)=O)C(C)C(O)C(C)/C=C(\C)C1C(C)C(O)C(C)C1/C=C/C[C@@H]1OC(=O)[C@H](C)[C@@H](O)[C@@H]1C` (stereo partly specified), the half-inhibitory concentration (IC50) with P388 is 5040 nM; with A549, 4490 nM.

The molecule `C=C/C=C\[C@H](C)[C@H](OC(N)=O)[C@@H](C)[C@H](O)[C@@H](C)C/C(C)=C\[C@H](C)[C@@H](O)[C@@H](C)/C=C\[C@@H](O)C[C@@H]1OC(=O)[C@H](C)[C@@H](O)[C@H]1C` [DISERMOLIDE] returned an IC50 with A549 of 13.5 nM.

The values are drawn from ChEMBL document CHEMBL1150132, “Five new discodermolide analogues from the marine sponge Discodermia species” (J Nat Prod, 2002).
